Source: ChEMBL document CHEMBL4024706 (Eur J Med Chem, 2017)

Experiments:
[1] = biological target: Aurora kinase B (Homo sapiens) (UniProt Q96GD4); experiment: Inhibition of wild-type human partial length AURKB (D25 to A303 residues) expressed in mammalian expression system assessed as residual activity at 1 uM by Kinomescan method relative to control
[2] = biological target: Phosphatidylinositol 3-kinase C2 domain-containing subunit gamma (Homo sapiens) (UniProt O75747); experiment: Inhibition of wild-type human partial length PIK3C2G (M1 to I1446 residues) expressed in mammalian expression system assessed as residual activity at 1 uM by Kinomescan method relative to control
[3] = biological target: Rhodopsin kinase GRK1 (Homo sapiens) (UniProt Q15835); experiment: Inhibition of wild-type human full length GRK1 (M1 to S563 residues) expressed in mammalian expression system assessed as residual activity at 1 uM by Kinomescan method relative to control
Sequence of Rhodopsin kinase GRK1 (Homo sapiens) (Q15835 whole entry, the tested form may be a part): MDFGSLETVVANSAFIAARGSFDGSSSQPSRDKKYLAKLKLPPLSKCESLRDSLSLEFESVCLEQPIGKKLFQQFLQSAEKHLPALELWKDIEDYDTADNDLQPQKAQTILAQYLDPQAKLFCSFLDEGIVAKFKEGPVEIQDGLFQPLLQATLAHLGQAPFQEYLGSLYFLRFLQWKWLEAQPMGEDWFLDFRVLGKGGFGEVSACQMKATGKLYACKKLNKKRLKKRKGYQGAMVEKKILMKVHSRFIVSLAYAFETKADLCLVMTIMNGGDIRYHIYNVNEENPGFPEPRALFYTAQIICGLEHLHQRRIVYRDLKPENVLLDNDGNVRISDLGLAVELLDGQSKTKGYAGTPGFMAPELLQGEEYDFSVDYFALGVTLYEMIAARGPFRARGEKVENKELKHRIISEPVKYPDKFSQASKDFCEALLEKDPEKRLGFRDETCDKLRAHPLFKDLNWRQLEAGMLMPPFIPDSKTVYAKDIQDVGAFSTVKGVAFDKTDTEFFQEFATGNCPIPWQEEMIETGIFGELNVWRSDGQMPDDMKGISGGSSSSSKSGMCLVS

[4] = Elimination half-life in Sprague-Dawley rat at 1 mg/kg, iv by LC-MS/MS method; assay type: ADME, organism-based; settings: in vivo, read-out: beta t1/2 (converted)
[5] = biological target: Serine/threonine-protein kinase PLK3 (Homo sapiens) (UniProt Q9H4B4); experiment: Inhibition of wild-type human partial length PLK3 (A42 to L334 residues) expressed in mammalian expression system assessed as residual activity at 1 uM by Kinomescan method relative to control
Pfeiffer = experiment: Cell cycle arrest in human Pfeiffer cells assessed as increase in accumulation at G0/G1 phase after 48 hrs by propidium iodide/RNase staining based flow cytometric method; assay type: functional
Ramos = experiment: Growth inhibition of human Ramos cells; assay type: functional; settings: Homo sapiens, Ramos
[6] = biological target: Mitogen-activated protein kinase 10 (Homo sapiens) (UniProt P53779); experiment: Inhibition of wild-type human partial length JNK3 (V28 to Q422 residues) expressed in mammalian expression system assessed as residual activity at 1 uM by Kinomescan method relative to control
[7] = biological target: Serine/threonine-protein kinase Sgk2 (Homo sapiens) (UniProt Q9HBY8); experiment: Inhibition of wild-type human partial length SGK2 (L54 to C427 residues) expressed in mammalian expression system assessed as residual activity at 1 uM by Kinomescan method relative to control
Sequence of Serine/threonine-protein kinase Sgk2 (Homo sapiens) (Q9HBY8 whole entry, the tested form may be a part): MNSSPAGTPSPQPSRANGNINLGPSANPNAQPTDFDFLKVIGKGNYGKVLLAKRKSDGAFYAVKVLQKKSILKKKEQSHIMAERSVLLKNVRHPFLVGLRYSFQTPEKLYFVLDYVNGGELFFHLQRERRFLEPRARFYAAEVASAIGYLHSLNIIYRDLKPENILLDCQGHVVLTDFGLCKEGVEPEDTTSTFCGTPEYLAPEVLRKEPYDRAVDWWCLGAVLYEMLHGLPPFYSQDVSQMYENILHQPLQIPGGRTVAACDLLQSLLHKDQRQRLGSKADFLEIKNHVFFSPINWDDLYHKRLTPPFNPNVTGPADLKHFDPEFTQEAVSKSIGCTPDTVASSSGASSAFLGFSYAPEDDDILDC

[8] = biological target: Mitogen-activated protein kinase 3 (Homo sapiens) (UniProt P27361); experiment: Inhibition of wild-type human full length ERK1 (M1 to P379 residues) expressed in bacterial expression system assessed as residual activity at 1 uM by Kinomescan method relative to control
[9] = test system: Proto-oncogene tyrosine-protein kinase receptor Ret (Homo sapiens), P07949 [V804L]; experiment: Inhibition of human partial length RET V804L mutant (E713 to D1014 residues) expressed in bacterial expression system assessed as residual activity at 1 uM by Kinomescan method relative to control
Sequence of Proto-oncogene tyrosine-protein kinase receptor Ret (Homo sapiens), P07949 [V804L] (P07949 whole entry V804L, the tested form may be a part): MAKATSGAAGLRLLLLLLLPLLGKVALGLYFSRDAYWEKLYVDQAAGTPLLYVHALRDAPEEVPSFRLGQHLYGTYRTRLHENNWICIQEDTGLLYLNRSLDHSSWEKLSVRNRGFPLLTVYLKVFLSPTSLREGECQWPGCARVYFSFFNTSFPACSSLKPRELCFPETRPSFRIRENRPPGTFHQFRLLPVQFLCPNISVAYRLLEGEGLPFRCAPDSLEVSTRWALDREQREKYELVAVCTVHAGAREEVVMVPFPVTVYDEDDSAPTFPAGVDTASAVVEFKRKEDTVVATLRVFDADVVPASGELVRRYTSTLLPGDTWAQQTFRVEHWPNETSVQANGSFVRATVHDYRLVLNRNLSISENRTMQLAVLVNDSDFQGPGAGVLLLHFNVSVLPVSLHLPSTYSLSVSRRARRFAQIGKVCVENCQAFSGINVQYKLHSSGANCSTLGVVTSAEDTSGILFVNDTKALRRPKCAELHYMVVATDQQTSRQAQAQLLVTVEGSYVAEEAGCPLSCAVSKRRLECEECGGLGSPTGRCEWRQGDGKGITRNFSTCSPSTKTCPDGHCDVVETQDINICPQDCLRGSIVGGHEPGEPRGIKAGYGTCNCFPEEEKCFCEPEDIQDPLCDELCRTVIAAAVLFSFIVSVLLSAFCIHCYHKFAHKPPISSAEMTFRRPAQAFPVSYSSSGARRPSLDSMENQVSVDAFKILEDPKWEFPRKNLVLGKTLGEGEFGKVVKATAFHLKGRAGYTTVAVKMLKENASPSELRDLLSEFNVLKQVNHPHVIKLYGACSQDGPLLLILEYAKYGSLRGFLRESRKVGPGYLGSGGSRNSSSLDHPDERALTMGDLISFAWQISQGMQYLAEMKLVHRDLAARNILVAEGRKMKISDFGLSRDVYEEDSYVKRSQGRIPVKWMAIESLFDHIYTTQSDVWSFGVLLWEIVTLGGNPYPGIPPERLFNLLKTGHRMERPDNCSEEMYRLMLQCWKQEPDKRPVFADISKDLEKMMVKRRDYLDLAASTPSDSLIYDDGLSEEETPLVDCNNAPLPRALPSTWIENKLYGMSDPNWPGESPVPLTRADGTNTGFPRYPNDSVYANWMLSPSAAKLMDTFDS

[10] = biological target: Serine/threonine-protein kinase TAO3 (Homo sapiens) (UniProt Q9H2K8); experiment: Inhibition of wild-type human partial length TAOK3 (M1 to T316 residues) expressed in mammalian expression system assessed as residual activity at 1 uM by Kinomescan method relative to control
[11] = biological target: Cyclin-dependent kinase 18 (Homo sapiens) (UniProt Q07002); experiment: Inhibition of wild-type human full length PCTK3 (M3 to F474 residues) expressed in bacterial expression system assessed as residual activity at 1 uM by Kinomescan method relative to control
Sequence of Cyclin-dependent kinase 18 (Homo sapiens) (Q07002 whole entry, the tested form may be a part): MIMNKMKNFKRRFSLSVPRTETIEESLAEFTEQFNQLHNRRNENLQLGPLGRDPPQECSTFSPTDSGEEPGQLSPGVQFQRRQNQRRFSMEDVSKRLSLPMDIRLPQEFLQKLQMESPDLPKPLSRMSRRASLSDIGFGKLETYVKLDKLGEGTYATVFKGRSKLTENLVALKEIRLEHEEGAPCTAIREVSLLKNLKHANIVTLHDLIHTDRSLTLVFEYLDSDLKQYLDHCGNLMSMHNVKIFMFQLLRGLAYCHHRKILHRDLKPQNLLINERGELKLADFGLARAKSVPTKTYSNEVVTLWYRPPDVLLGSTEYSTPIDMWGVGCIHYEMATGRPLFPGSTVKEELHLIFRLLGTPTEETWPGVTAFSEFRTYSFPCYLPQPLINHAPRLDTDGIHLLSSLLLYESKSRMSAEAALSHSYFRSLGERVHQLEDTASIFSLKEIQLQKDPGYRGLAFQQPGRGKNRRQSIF

[12] = biological target: Epidermal growth factor receptor (Homo sapiens, UniProt P00533); experiment: Inhibition of recombinant human N-terminal GST-tagged wild-type EGFR (695 to end residues) expressed in baculovirus infected Sf9 insect cells using poly (Glu,Tyr)4:1 as substrate pretreated for 60 mins followed by substrate addition after 1 hr by ADP-Glo luminescence assay
[13] = biological target: Serine/threonine-protein kinase 32B (Homo sapiens) (UniProt Q9NY57); experiment: Inhibition of wild-type human full length YANK2 (M1 to S414 residues) expressed in bacterial expression system assessed as residual activity at 1 uM by Kinomescan method relative to control
[14] = biological target: Calcium/calmodulin-dependent protein kinase type 1B (Homo sapiens) (UniProt Q6P2M8); experiment: Inhibition of wild-type human partial length CAMK1B (W9 to A311 residues) expressed in mammalian expression system assessed as residual activity at 1 uM by Kinomescan method relative to control
Sequence of Calcium/calmodulin-dependent protein kinase type 1B (Homo sapiens) (Q6P2M8 whole entry, the tested form may be a part): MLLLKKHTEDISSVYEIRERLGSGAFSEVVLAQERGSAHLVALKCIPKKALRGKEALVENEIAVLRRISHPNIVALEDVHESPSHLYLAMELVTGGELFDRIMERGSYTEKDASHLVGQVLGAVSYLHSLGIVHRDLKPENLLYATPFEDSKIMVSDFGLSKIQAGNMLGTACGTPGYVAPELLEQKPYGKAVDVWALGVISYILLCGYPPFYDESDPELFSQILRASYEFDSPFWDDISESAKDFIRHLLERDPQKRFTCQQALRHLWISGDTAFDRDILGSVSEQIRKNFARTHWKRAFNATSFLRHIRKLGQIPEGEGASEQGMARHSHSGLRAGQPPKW

[15] = biological target: Serine/threonine-protein kinase LATS1 (Homo sapiens) (UniProt O95835); experiment: Inhibition of wild-type human partial length LATS1 (Q678 to V1130 residues) expressed in bacterial expression system assessed as residual activity at 1 uM by Kinomescan method relative to control
[16] = biological target: MAP kinase-interacting serine/threonine-protein kinase 1 (Homo sapiens) (UniProt Q9BUB5); experiment: Inhibition of wild-type human full length MKNK1 (M1 to L424 residues) expressed in mammalian expression system assessed as residual activity at 1 uM by Kinomescan method relative to control
[17] = AUC (0 to t) in Sprague-Dawley rat at 10 mg/kg, po by LC-MS/MS method; assay type: ADME, organism-based; settings: in vivo
[18] = biological target: cAMP-dependent protein kinase catalytic subunit alpha (Homo sapiens) (UniProt P17612); experiment: Inhibition of wild-type human partial length PKAC-alpha (G10 to F351 residues) expressed in bacterial expression system assessed as residual activity at 1 uM by Kinomescan method relative to control
[19] = biological target: Tyrosine-protein kinase BTK (Homo sapiens, UniProt Q06187); experiment: Reversible inhibition of full length recombinant human N-terminal His tagged […] expressed in baculovirus infected Sf9 insect cells using poly (Glu,Tyr)4:1 as substrate pretreated for 2 to 60 mins followed by substrate addition after 1 hr by ADP-Glo luminescence assay
Sequence of Tyrosine-protein kinase BTK (Q06187 whole entry, the tested form may be a part): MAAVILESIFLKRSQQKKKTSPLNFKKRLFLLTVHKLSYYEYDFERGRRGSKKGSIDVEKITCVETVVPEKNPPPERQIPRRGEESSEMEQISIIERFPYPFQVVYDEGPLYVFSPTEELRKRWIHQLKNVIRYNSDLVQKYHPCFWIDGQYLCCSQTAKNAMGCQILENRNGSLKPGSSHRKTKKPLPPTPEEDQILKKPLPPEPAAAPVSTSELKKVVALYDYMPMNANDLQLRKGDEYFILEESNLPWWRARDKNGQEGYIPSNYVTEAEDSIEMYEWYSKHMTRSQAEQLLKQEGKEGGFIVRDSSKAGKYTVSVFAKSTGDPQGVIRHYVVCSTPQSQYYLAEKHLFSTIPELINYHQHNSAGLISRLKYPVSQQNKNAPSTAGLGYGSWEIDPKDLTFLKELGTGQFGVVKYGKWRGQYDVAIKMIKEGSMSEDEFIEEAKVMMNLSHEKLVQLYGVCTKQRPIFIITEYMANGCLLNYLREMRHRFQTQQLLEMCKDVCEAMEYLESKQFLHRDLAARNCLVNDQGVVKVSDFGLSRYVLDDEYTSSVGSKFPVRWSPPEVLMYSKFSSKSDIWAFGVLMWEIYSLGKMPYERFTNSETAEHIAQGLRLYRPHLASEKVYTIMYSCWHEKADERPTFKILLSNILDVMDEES

[20] = biological target: Serine/threonine-protein kinase NIM1 (Homo sapiens) (UniProt Q8IY84); experiment: Inhibition of wild-type human partial length NIM1 (Q44 to N355 residues) expressed in mammalian expression system assessed as residual activity at 1 uM by Kinomescan method relative to control
Sequence of Serine/threonine-protein kinase NIM1 (Homo sapiens) (Q8IY84 whole entry, the tested form may be a part): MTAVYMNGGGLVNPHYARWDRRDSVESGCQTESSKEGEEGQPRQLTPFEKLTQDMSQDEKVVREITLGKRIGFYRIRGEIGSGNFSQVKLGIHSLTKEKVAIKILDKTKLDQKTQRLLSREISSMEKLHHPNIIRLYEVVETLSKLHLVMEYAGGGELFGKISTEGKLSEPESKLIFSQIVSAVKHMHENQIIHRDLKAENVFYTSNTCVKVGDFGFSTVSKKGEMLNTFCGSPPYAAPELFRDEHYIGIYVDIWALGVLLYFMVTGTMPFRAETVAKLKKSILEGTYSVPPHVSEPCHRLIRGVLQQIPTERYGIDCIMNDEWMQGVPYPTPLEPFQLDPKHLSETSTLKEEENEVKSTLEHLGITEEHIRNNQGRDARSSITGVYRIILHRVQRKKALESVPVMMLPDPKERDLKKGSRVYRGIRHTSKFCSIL

[21] = biological target: 1-phosphatidylinositol 3-phosphate 5-kinase (Homo sapiens) (UniProt Q9Y2I7); experiment: Inhibition of wild-type human partial length PIKFYVE (F1512 to C2098 residues) expressed in mammalian expression system assessed as residual activity at 1 uM by Kinomescan method relative to control
[22] = test system: Proto-oncogene tyrosine-protein kinase receptor Ret (Homo sapiens), P07949 [M918T]; experiment: Inhibition of human partial length RET M918T mutant (E713 to D1014 residues) expressed in bacterial expression system assessed as residual activity at 1 uM by Kinomescan method relative to control
[23] = biological target: Calcium/calmodulin-dependent protein kinase type II subunit gamma (Homo sapiens) (UniProt Q13555); experiment: Inhibition of wild-type human partial length CAMK2G (R9 to A303 residues) expressed in bacterial expression system assessed as residual activity at 1 uM by Kinomescan method relative to control
Sequence of Calcium/calmodulin-dependent protein kinase type II subunit gamma (Homo sapiens) (Q13555 whole entry, the tested form may be a part): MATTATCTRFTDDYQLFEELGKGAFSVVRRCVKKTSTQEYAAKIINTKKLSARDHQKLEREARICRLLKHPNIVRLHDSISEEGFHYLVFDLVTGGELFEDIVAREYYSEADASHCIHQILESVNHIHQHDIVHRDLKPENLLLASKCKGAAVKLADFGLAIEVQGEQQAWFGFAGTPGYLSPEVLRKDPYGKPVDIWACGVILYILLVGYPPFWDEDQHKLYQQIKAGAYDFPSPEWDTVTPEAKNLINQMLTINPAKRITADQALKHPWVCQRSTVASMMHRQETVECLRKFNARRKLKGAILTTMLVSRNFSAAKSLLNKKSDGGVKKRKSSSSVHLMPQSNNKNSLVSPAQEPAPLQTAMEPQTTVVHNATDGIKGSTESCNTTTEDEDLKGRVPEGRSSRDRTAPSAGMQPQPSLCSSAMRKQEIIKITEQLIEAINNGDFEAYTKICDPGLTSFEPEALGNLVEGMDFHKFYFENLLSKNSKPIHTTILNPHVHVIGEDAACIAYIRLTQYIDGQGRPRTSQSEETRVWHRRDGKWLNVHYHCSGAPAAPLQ

[24] = biological target: Mitogen-activated protein kinase kinase kinase 14 (Homo sapiens) (UniProt Q99558); experiment: Inhibition of wild-type human partial length NIK (L318 to P947 residues) expressed in mammalian expression system assessed as residual activity at 1 uM by Kinomescan method relative to control

Sequence of Aurora kinase B (Homo sapiens) (Q96GD4 whole entry, the tested form may be a part): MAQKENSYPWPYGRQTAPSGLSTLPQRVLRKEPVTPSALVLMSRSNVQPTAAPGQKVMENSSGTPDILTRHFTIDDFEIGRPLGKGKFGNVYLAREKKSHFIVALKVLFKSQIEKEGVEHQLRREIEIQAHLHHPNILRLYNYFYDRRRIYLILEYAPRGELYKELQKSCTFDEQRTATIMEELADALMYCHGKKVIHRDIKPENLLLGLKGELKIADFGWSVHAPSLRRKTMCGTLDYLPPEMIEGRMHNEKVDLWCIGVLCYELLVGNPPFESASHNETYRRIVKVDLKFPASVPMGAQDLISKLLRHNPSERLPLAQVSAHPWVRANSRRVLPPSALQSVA

C=CC(=O)Nc1cc(Nc2cc(-c3cccc(NC(=O)c4ccc(C(C)(C)C)cc4)c3C)cn(C)c2=O)ccc1C(=O)N1CCOCC1
Activity [1]: 98%
Activity [2]: 95%
Activity [3]: 100%
half-life [4]: 13.8 min
Activity [5]: 95%
Activity (Pfeiffer): Dose-dependent effect
GI50 (Ramos): 3.5 µM
Activity [6]: 91%
Activity [7]: 93%
Activity [8]: 99%
Activity [9]: 100%
Activity [10]: 94%
Activity [11]: 98%
IC50 [12]: > 10 µM
Activity [13]: 100%
Activity [14]: 85%
Activity [15]: 74%
Activity [16]: 91%
AUC(0-t) [17]: 22 ng·h/mL
Activity [18]: 95%
Ki [19]: 0.0089 µM
Activity [20]: 100%
Activity [21]: 96%
Activity [22]: 100%
Activity [23]: 100%
Activity [24]: 86%
